Results as given in patent US12077555B2, “STAT degraders and uses thereof” (Kymera Therapeutics, Inc., priority 2019, dated 2024).

Biological target: STAT3 (Homo sapiens, UniProt P40763)
Test: STAT3 HiBiT degradation assay in transfected A549 cells
Assay type: cell-based
Design: expressed in transfected cells; host or cells: A549
Settings: A549, 24 h; read-out: STAT3 HiBiT A549 degradation 24 h: Average external-Abs DC50
Experimental: Compound preparation and Cell seeding: The transfected A549 cells were harvested from dish into cell culture medium and cell numbers counted. Cells were diluted with culture medium to the desired density and 30 μL of cell suspension (about 2000 cells/well) were added into each well of a 384-well cell culture plate as designated and transferred into 37° C. 5% CO2 incubator for 24 h. Compounds were dissolved to 10 mM stock solution and 12 μL of the stock solution was transferred to a 384 LDV-plate. 3 fold, 10-point dilution was performed by transferring 4 μL compound into 8 μL DMSO using a TECAN (EVO200) liquid handler. 30 μL of diluted compound from compound source plate was transferred into the cell plate as designated by using Echo550 and transferred into 37° C. 5% CO2 incubator for 24 h.
Detection: Plates were removed from incubators and equilibrated at room temperature for 15 minutes. Nano-Glo Hibit Lytic Detection reagent (Promega Cat #N3040) was thawed and equilibrated to room temperature before the experiment. 30 μL of Nano-Glo Hibit Lytic Detection reagent was added into each well to be detected. The plates were held at room temperature for 10 min followed by reading on EnSpire.
Data analysis: The remaining activity was calculated following the formula: Remaining Activity (%)=100%×(Lumsample−LumNC)/(LumPC−LumNC). Calculate the IC50 by fitting the curve using Xlfit (v5.3.1.3), equation 201: fit=(A+((B−A)/(1+((x/C)^D)))); A: Bottom; B: Top; C: IC50; and D: Slope.
The letter codes for STAT3 DC50 include: A (<0.01 μM), B (0.01-0.1 μM), C (0.1-1.0 μM), and D (>1.0 μM).

STAT3, sequence (P40763 whole entry): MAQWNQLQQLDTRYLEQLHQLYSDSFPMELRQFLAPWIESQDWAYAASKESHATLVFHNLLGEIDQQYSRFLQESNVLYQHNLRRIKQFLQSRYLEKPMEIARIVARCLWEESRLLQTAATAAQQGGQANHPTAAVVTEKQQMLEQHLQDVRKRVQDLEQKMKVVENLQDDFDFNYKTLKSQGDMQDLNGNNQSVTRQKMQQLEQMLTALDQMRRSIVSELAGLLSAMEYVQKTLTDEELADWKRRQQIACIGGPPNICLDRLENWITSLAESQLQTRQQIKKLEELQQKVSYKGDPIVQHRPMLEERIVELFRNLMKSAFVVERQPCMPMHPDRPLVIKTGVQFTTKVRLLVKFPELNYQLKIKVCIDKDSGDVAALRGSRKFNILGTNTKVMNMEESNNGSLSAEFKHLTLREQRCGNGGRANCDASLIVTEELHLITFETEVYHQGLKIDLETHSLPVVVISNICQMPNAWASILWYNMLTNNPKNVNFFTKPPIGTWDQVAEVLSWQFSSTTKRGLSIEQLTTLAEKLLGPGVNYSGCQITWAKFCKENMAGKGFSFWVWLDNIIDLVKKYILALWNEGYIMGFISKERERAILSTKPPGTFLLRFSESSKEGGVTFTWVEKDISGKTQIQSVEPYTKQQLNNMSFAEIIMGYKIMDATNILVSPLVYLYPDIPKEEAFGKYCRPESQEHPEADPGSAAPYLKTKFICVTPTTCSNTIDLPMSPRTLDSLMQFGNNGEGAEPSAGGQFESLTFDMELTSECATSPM

Compound	DC50
Cc1ncsc1-c1ccc([C@H](C)NC(=O)[C@@H]2C[C@@H](O)CN2C(=O)[C@@H](NC(=O)CCCCc2ccc(CO[C@H](C)[C@H](CCC(N)=O)NC(=O)[C@@H]3Cc4cccc5c4N3C(=O)[C@@H](NC(=O)c3cc4cc(C(=O)O)ccc4[nH]3)CC5)cc2)C(C)(C)C)cc1 [Compound I-131, Ammonium 2-[[(2S,11S)-2-[[(3S,4R)-1-carbamoyl-4-[[4-(4-[[(2S)-1-[(2S,4R)-4-hydroxy-2-[[(1S)-1-[4-(4-methyl-1,3-thiazol-5 yl)phenyl]ethyl]carbamoyl]pyrrolidin-1-yl]-3,3-dimethyl-1-oxobutan-2-yl]carbamoyl]butyl)phenyl]methoxy]pentan-3-yl]carbamoyl]-12-oxo-1-azatricyclo[6.4.1.0^[4,13]]trideca-4(13),5,7-trien-11-yl]carbamoyl]-1H-indole-5-carboxylate]	> 1 µM
Cn1c(=O)n(C2CCC(=O)NC2=O)c2ccc(NCCCCCC(=O)N3CC[C@H]4CC[C@@H](C(=O)N[C@@H](CCC(N)=O)C(=O)NC(c5ccccc5)c5ccccc5)N4C(=O)[C@@H](NC(=O)c4cc5cc(C(=O)P(=O)(O)O)ccc5[nH]4)C3)cc21 (stereo partly drawn) [Compound I-132, 2-[[(5S,8S,10aR)-8-[[(1S)-3-carbamoyl-1-(diphenylmethylcarbamoyl)propyl]carbamoyl]-3-(6-[[1-(2,6-dioxopiperidin-3-yl)-3-methyl-2-oxo-1,3-benzodiazol-5-yl]amino]hexanoyl)-6-oxo-octahydropyrrolo[1,2-a][1,5]diazocin-5-yl]carbamoyl]-1H-indole-5-carbonylphosphonic acid]	0.1 to 1 µM
Cc1ncsc1-c1ccc(CNC(=O)[C@@H]2C[C@@H](O)CN2C(=O)[C@@H](NC(=O)CCCc2cccc3cc(CO[C@H](C)[C@H](CCC(N)=O)NC(=O)[C@@H]4Cc5cccc6c5N4C(=O)[C@@H](NC(=O)c4cc5cc(C(=O)P(=O)(O)O)ccc5[nH]4)CC6)ccc23)C(C)(C)C)cc1 [Compound I-133, diammonium 2-[[(2S,11S)-2-[[(3S,4R)-1-carbamoyl-4-[[5-(3-[[(2S)-1-[(2S,4R)-4-hydroxy-2-([[4-(4-methyl-1,3-thiazol-5-yl)phenyl]methyl]carbamoyl)pyrrolidin-1-yl]-3,3-dimethyl-1-oxobutan-2-yl]carbamoyl]propyl)naphthalen-2-yl]methoxy]pentan-3-yl]carbamoyl]-12-oxo-1-azatricyclo[6.4.1.0^[4,13]]trideca-4(13),5,7-trien-11-yl]carbamoyl]-1H-indole-5-carbonylphosphonate]	0.1 to 1 µM
Cn1c(=O)n(C2CCC(=O)NC2=O)c2ccc(N3CC(CCCC(=O)N4CC[C@H]5CC[C@@H](C(=O)N[C@@H](CCC(N)=O)C(=O)NC(c6ccccc6)c6ccccc6)N5C(=O)[C@@H](NC(=O)c5cc6cc(C(=O)P(=O)(O)O)ccc6[nH]5)C4)C3)cc21 (stereo partly drawn) [Compound I-135, 2-[[(5S,8S,10aR)-8-[[(1S)-3-carbamoyl-1-(diphenylmethylcarbamoyl)propyl]carbamoyl]-3-(4-[1-[1-(2,6-dioxopiperidin-3-yl)-3-methyl-2-oxo-1,3-benzodiazol-5-yl]azetidin-3-yl]butanoyl)-6-oxo-octahydropyrrolo[1,2-a][1,5]diazocin-5-yl]carbamoyl]-1H-indole-5-carbonylphosphonic acid]	0.1 to 1 µM
Cc1ncsc1-c1ccc(CNC(=O)[C@@H]2C[C@@H](O)CN2C(=O)[C@@H](NC(=O)CCc2cccc3cc(CO[C@H](C)[C@H](CCC(N)=O)NC(=O)[C@@H]4Cc5cccc6c5N4C(=O)[C@@H](NC(=O)c4cc5cc(C(=O)P(=O)(O)O)ccc5[nH]4)CC6)ccc23)C(C)(C)C)cc1 [Compound I-136, diammonium 2-[[(2S,11S)-2-[[(3S,4R)-1-carbamoyl-4-[[5-(2-[[(2S)-1-[(2S,4R)-4-hydroxy-2-([[4-(4-methyl-1,3-thiazol-5-yl)phenyl]methyl]carbamoyl)pyrrolidin-1-yl]-3,3-dimethyl-1-oxobutan-2-yl]carbamoyl]ethyl)naphthalen-2-yl]methoxy]pentan-3-yl]carbamoyl]-12-oxo-1-azatricyclo[6.4.1.0^[4,13]]trideca-4(13),5,7-trien-11-yl]carbamoyl]-1H-indole-5-carbonylphosphonate]	> 1 µM
Cc1ncsc1-c1ccc(CNC(=O)[C@@H]2C[C@@H](O)CN2C(=O)[C@@H](NC(=O)CCCc2ccc(CNC(=O)[C@H](CCC(N)=O)NC(=O)[C@@H]3Cc4cccc5c4N3C(=O)[C@@H](NC(=O)c3cc4cc(C(=O)P(=O)(O)O)ccc4[nH]3)CC5)cc2)C(C)(C)C)cc1 [Compound I-138]	> 1 µM
Cc1ncsc1-c1ccc(CNC(=O)[C@@H]2C[C@@H](O)CN2C(=O)C(NC(=O)CCCCc2ccc(CNC(=O)[C@H](CCC(N)=O)NC(=O)[C@@H]3Cc4cccc5c4N3C(=O)[C@@H](NC(=O)c3cc4cc(C(=O)P(=O)(O)O)ccc4[nH]3)CC5)cc2)C(C)(C)C)cc1 (stereo partly shown) [Compound I-139]	> 1 µM
Cc1ncsc1-c1ccc(CNC(=O)[C@@H]2C[C@@H](O)CN2C(=O)[C@@H](NC(=O)CCCCCc2ccc(CNC(=O)[C@H](CCC(N)=O)NC(=O)[C@@H]3Cc4cccc5c4N3C(=O)[C@@H](NC(=O)c3cc4cc(C(=O)P(=O)(O)O)ccc4[nH]3)CC5)cc2)C(C)(C)C)cc1 [Compound I-140]	> 1 µM
Cc1ncsc1-c1ccc([C@H](C)NC(=O)[C@@H]2C[C@@H](O)CN2C(=O)[C@@H](NC(=O)CCCCc2ccc(COC[C@H](CCC(N)=O)NC(=O)[C@@H]3Cc4cccc5c4N3C(=O)[C@@H](NC(=O)c3cc4cc(C(=O)P(=O)(O)O)ccc4[nH]3)CC5)cc2)C(C)(C)C)cc1 [Compound I-141, diammonium 2-[[(2S,11S)-2-[[(2S)-4-carbamoyl-1-[[4-(4-[[(2S)-1-[(2S,4R)-4-hydroxy-2-[[(1S)-1-[4-(4-methyl-1,3-thiazol-5-yl)phenyl]ethyl]carbamoyl]pyrrolidin-l-yl]-3,3-dimethyl-1-oxobutan-2-yl]carbamoyl]butyl)phenyl]methoxy]butan-2-yl]carbamoyl]-12-oxo-1-azatricyclo[6.4.1.0^[4,13]]trideca-4(13),5,7-trien-11-yl]carbamoyl]-1H-indole-5-carbonylphosphonate]	0.01 to 0.1 µM
C/C(=C\C(=O)N[C@H]1CCc2cccc3c2N(C1=O)[C@H](C(=O)N[C@@H](CCC(N)=O)[C@@H](C)OCc1ccc(CCCCC(=O)N[C@H](C(=O)N2C[C@H](O)C[C@H]2C(=O)N[C@@H](C)c2ccc(-c4scnc4C)cc2)C(C)(C)C)cc1)C3)c1cccc(C(F)(F)P(=O)(O)O)c1 [Compound I-142]	> 1 µM
C/C(=C\C(=O)N[C@H]1CN(C(=O)CCCCCCc2ccc3c(c2)n(C)c(=O)n3C2CCC(=O)NC2=O)CC[C@H]2CC[C@@H](C(=O)N[C@@H](CCC(N)=O)C(=O)NC(c3ccccc3)c3ccccc3)N2C1=O)c1cccc(C(F)(F)P(=O)(O)O)c1 (stereo partly drawn) [Compound I-143, [3-[(1E)-1-[[(8S,10aR)-8-[[(1S)-3-carbamoyl-1-(diphenylmethylcarbamoyl)propyl]carbamoyl]-3-[7-[1-(2,6-dioxopiperidin-3-yl)-3-methyl-2-oxo-1,3-benzodiazol-5-yl]heptanoyl]-6-oxo-octahydropyrrolo[1,2-a][1,5]diazocin-5-yl]carbamoyl]prop-1-en-2-yl]phenyl]difluoromethylphosphonic acid]	> 1 µM

Same assay, conditions: read-out: STAT3 HiBiT A549 degradation 24 h: Average external-Abs DC50; A549, 24 h

Compound	DC50
Cn1c(=O)n(C2CCC(=O)NC2=O)c2cc(CCCCCCC(=O)N3CC[C@H]4CC[C@@H](C(=O)N[C@@H](CCC(N)=O)C(=O)NC(c5ccccc5)c5ccccc5)N4C(=O)[C@@H](NC(=O)c4cc5cc(C(=O)P(=O)(O)O)ccc5[nH]4)C3)ccc21 (stereo partly drawn) [Compound I-134, 2-[[(5S,8S,10aR)-8-[[(1S)-3-carbamoyl-1-(diphenylmethylcarbamoyl)propyl]carbamoyl]-3-[7-[3-(2,6-dioxopiperidin-3-yl)-1-methyl-2-oxo-1,3-benzodiazol-5-yl]heptanoyl]-6-oxo-octahydropyrrolo[1,2-a][1,5]diazocin-5-yl]carbamoyl]-1H-indole-5-carbonylphosphonic acid]	> 1 µM
Cc1ncsc1-c1ccc(CNC(=O)[C@@H]2C[C@@H](O)CN2C(=O)[C@@H](NC(=O)CCCCc2ccc(CO[C@H](C)[C@H](CCC(N)=O)NC(=O)[C@@H]3[C@@H]4C[C@@H]4CN3C(=O)[C@H](CC(C)C)NC(=O)c3cc4cc(C(=O)P(=O)(O)O)ccc4[nH]3)cc2)C(C)(C)C)cc1 [Compound I-137, diammonium 2-[[(2S)-1-[(1R,2S,5S)-2-[[(3S,4R)-1-carbamoyl-4-[[4-(4-[[(2S)-1-[(2S,4R)-4-hydroxy-2-([[4-(4-methyl-1,3-thiazol-5-yl)phenyl]methyl]carbamoyl)pyrrolidin-1-yl]-3,3-dimethyl-1-oxobutan-2-yl]carbamoyl]butyl)phenyl]methoxy]pentan-3-yl]carbamoyl]-3-azabicyclo[3.1.0]hexan-3-yl]-4-methyl-1-oxopentan-2-yl]carbamoyl]-1H-indole-5-carbonylphosphonate]	0.01 to 0.1 µM
